Source: patent US6881825B1, “Identication of peptides that facilitate uptake and cytoplasmic and/or nuclear transport of proteins, DNA and virues” (University of Pittsburgh of The Commonwealth System of …, priority 1999, dated 2005)
Where no end group is shown, it is not given here.

Key:
HIG82 cells = experiment: Cell viability by MTT assay (OD 570 nm); format: cell-based, rabbit; settings: HIG-82 cells; 100-3.1 μM peptide, three hours; FIG. 14, 15
Description: 2×10^5 cells (HIG82, MCA205 or Jurkatt) were seeded into 24 well plates. Forty-eight hours later, 100 μM, 50 μM, 25 μM, 6.25 μM and 3.1 μM of the either the death peptide (SEQ ID NO:24), peptide 5 alone (SEQ ID NO:5) or the apoptotic peptide alone (SEQ ID NO:23) was added to the cells. To check for cell viability, three hours later, the media was aspirated and 1 ml of scrum-free media containing 0.25 mg of MTT was added to each well and incubated for 4 hours at 37° C. MTT-containing media was then removed and 1 ml of absolute isopropanol containing 0.4N HCl was added. Photographs were taken of the plates, then the cells were harvested and any debris was centrifuged. OD as taken at λ=570 nm. Each sample point was performed in triplicate.

MCA205 fibrosarcomas = experiment: TUNEL and H&E staining of treated MCA205 fibrosarcomas; format: in vivo, C57BL/6 mice; settings: 11 days daily treatment, sacrificed three hours after last injection; FIG. 16C
Description: (§1) To determine whether the death peptide could induce apoptosis in tumor cells and inhibit tumor growth in vivo, C57BL/6 mice bearing day 7 tumors in each […] (seeded with 1×10^5 MCA205 cells) were injected daily for 10 days with a 50 μl volume of 1 mM death peptide (SEQ ID NO:24; DP1) or the apoptotic peptide alone (SEQ ID NO:23; KLA) or a saline mock into both tumors. Five mice were used in each group. Tumor volume was estimated by multiplying maximum length×width^2. Separately, C57BL/6 with single, day 12 tumors were injected with 1 mM death peptide (SEQ ID NO:24; DP1), apoptotic peptide alone (SEQ ID NO:23; KLA) or saline for eleven days. Ten mice comprised each group. On the final day, the mice were injected with the appropriate saline or peptide solution and sacrificed 3 hours post-injection. Tumors were paraffin-embedded, sectioned, and stained for TUNEL and counterstained with methyl green or stained with hematoxylin and eosin to reveal histologic architecture.
To test whether apoptosis was the mechanism of tumor killing in vivo and to study the effects of death peptide administration on tumor architecture, fibrosarcomas treated daily for 11 days with death peptide (SEQ ID NO:24; DP1), apoptotic peptide alone (SEQ ID NO:23, KLA) or tris buffered saline (TBS) were injected with 50 μl of 1 mM DP1, KLA or TBS on the eleventh day and sacrificed three hours later. […]

[1] = tested on: arthritic rabbit knee joints; experiment: IL-1-induced arthritis, intra-articular peptide, TUNEL/histology and lavage white blood cells; format: in vivo; settings: arthritic rabbit knees; FIG. 18
Description: In addition, the death peptide was administered to rabbits with IL-1-induced arthritis (see Ghivizzani et al. J. Immunol. 159:3604 (1997)). Three arthritic rabbits received the death peptide, three received peptide 5 alone and 3 received the apoptotic protein alone. The rabbits were sacrificed 24 or 72 hours post-injection of the peptides and the rabbit knee capsules were removed for histology analysis and TUNEL staining.

MCA205 tumors = experiment: Growth of MCA205 fibrosarcomas under daily intra-tumoral injection; format: in vivo; settings: repeated administration
Description: as §1

| Sequence | cell viability (MTT, OD570) (HIG82 cells) | apoptosis in tumors (TUNEL staining) (MCA205 fibrosarcomas) | apoptosis of hyperplastic synovium [1] | side-effects in treated mice (MCA205 tumors) |
| --- | --- | --- | --- | --- |
| KLAKLAKKLAKLAK (random peptide library) | did not impair viability | No TUNEL staining | did not |  |
| RRQRRTSKLMKRGGKLAKLAKKLAKLAK [death peptide] |  |  |  | no obvious side-effects |
